molecular target: T1, Vitamin D3 receptor (Homo sapiens) (UniProt P11473); experiment: Binding affinity to VDR relative to (1-alpha 25-(OH)2D3
T1 sequence (whole entry): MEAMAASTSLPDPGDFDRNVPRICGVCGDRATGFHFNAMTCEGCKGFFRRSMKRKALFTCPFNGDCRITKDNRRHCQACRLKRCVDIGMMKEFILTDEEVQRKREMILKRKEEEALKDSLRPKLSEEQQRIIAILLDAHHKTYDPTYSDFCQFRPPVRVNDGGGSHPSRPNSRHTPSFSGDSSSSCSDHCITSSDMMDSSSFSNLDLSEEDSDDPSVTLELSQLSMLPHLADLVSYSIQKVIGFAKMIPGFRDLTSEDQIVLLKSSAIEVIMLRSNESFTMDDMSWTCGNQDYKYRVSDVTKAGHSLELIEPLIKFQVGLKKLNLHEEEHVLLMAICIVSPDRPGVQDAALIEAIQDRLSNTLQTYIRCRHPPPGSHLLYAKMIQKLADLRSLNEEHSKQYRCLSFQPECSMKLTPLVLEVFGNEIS

Row | Compound | Activity
1 | CCC(CC)(c1ccc(OC[C@@H](O)CO)c(C)c1)c1ccc(OC[C@@H](O)C(C)(C)C)c(C)c1 | 0.831
2 | CCC(CC)(c1ccc(OC[C@H](O)CO)c(C)c1)c1ccc(OC[C@H](O)C(C)(C)C)c(C)c1 | 0.482
3 | CCC(CC)(c1ccc(OC[C@H](O)CO)c(C)c1)c1ccc(OC[C@@H](O)C(C)(C)C)c(C)c1 | 0.112
4 | CCC(CC)(c1ccc(OC[C@@H](O)CO)c(C)c1)c1ccc(OC[C@H](O)C(C)(C)C)c(C)c1 | 28.3
